In patent publication US20230121116A1, “USE OF QUINAZOLINE-BASED TYROSINE KINASE INHIBITORS FOR THE TREATMENT OF CANCERS WITH NRG1 FUSIONS” (Board of Regents, The University of Texas System, priority 2020, published 2023):

tested on: MDA175-VII (NRG1-DOC4 fusion) cells; test: Cell viability of MDA175-VII (NRG1-DOC4 fusion) cells, Cell Titer Glo assay; format: cell-based; details: MDA175-VII (NRG1-DOC4 fusion) cells treated with IACS inhibitors, 72 hours
Procedure: FIG. 1A. Representative dose response curves of MDA175-VII (NRG1-DOC4 fusion) treated with the indicated IACS novel quinazoline-based TKIs for 72 hours. Cell viability was determined by Cell Titer Glo Assay.
FIG. 3A. Representative dose response curves of MDA175-VII (NRG1-DOC4 fusion) treated with the indicated anti-HER2 therapy with or without low dose treatment of IACS inhibitors for 72 hours. Cell viability was determined by Cell Titer Glo Assay.
Cell viability was determined by the Cell Titer Glo assay.

Compound	IC50 [nM]
C=CC(=O)N1CC(Oc2cc3c(Nc4ccc(Cl)c(Cl)c4)ncnc3cc2OC)C1 [IACS-015285]	0.268
C=CC(=O)N1CC(Oc2cc3c(Nc4ccc(Cl)c(Cl)c4F)ncnc3cc2OC)C1 [IACS-015293]	0.16
C=CC(=O)N1CC(Oc2ccc3ncnc(Nc4ccc(Cl)c(Cl)c4)c3n2)C1 [IACS-052336]	26.8
C=CC(=O)N1CCC(Oc2cc3c(Nc4ccc(Cl)c(Cl)c4F)c(C#N)cnc3cc2OC)CC1 [IACS-070709]	1.29
C=CC(=O)N1CC(Oc2cc3c(Nc4ccc(Cl)cc4Cl)ncnc3cc2OC)C1 [IACS-070863]	10.5
C=CC(=O)N1CC(Oc2cc3c(Nc4ccc(Br)c(Cl)c4)ncnc3cc2OC)C1 [IACS-070864]	0.979
C=CC(=O)N1CC(Oc2cc3c(Nc4ccccc4)ncnc3cc2OC)C1 [IACS-070871]	1.08
C=CC(=O)N1CCC(Oc2cc3c(Nc4ccc(Cl)c(Cl)c4F)ncnc3cc2OC)C1 (centres unmarked) [IACS-070968]	3.12
C=CC(=O)N1CCC(Oc2cc3c(Nc4ccc(Cl)c(Cl)c4)ncnc3cc2OC)CC1 [IACS-070979]	0.157
C=CC(=O)N1CCC(Oc2cc3c(Nc4ccc(Cl)cc4Cl)ncnc3cc2OC)CC1 [IACS-070980]	4.46
C=CC(=O)N1CCC(Oc2cc3c(Nc4ccc(Br)c(Cl)c4)ncnc3cc2OC)CC1 [IACS-070982]	0.296
C=CC(=O)N1CCC(Oc2cc3c(Nc4ccccc4)ncnc3cc2OC)CC1 [IACS-070989]	1.03

same assay, conditions: MDA175-VII (NRG1-DOC4 fusion) cells treated with anti-HER2 antibodies with or without low dose IACS inhibitors, 72 hours

Compound	IC50 [nM]
Pertuzumab: recombinant, humanized monoclonal antibody that inhibits dimerization of HER2 [reference compound]	58.2
T-DM1 [reference compound]	652
